One test has as its target T1, Gal4-RORγ-LBD (Homo sapiens, UniProt P51449).
T1 construct: expressed in transfected cells
T1 sequence (P51449 269-508 limits assumed): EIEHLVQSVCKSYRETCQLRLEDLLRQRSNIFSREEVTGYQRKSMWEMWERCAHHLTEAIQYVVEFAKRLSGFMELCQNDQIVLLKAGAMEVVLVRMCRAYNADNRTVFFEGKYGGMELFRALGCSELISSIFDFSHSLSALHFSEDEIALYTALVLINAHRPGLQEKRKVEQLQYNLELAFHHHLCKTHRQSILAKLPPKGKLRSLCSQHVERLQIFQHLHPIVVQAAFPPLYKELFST
Description: Gal4-RORγ Luciferase Reporter Assay in HEK-293T Cells. Format: cell-based. The note with it: HEK-293 cells, luciferase reporter; for Gal4-RORγ Assay Max Response: maximum response. An outline of the steps:
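HEK-293 cells were co-transfected with Gal4-RORγ-LBD and a Gal4-luciferase reporter, then exposed overnight at 37 °C to compounds with […] ursolic acid present (0.2% DMSO). Luminescence was read with One-Glo after 10 min at RT, untreated signal was set as 100, and Max Response was taken as the upper plateau of a 4-parameter logistic fit.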
(In a reporter assay the amount or activity of a reporter protein is the signal.)

The target in a further test is T2, RORγ-LBD (Homo sapiens, UniProt P51449).
T2 construct: made in house; host or cells: SF9 cells (baculovirus); used as diluted lysate
T2 sequence (P51449 269-508 limits assumed): T1 sequence (P51449 269-508 limits assumed)
As to the kind of experiment: RORγ-Ligand Binding Domain (LBD) TR-FRET Assay.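 For TR-FRET Assay Max Response: 665/615 nm signal ratio set to 100 without ursolic acid or test compound.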 Format: biochemical. The note with it: for TR-FRET Assay Max Response: maximum response. An outline of the steps: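 SF9 lysate containing His-RORγ-LBD, ~3 nM final; coactivator peptide biotin-SRC1 LXXLL, 200 nM final; ursolic acid 2 μM final; DMSO 1% final; Tris pH 7.0 buffer with KCl, EDTA, DTT, BSA. TR-FRET format.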
A general note: Time-resolved FRET reads energy transfer from a long-lived donor to a nearby acceptor.

Regarding `COC(=O)CC[C@H]1CN(S(=O)(=O)c2c(OC)nn3c2CCCC3)c2cc(/C=C(\C)c3c(F)cccc3Cl)ccc2O1` [Example 86L, (S,E)-methyl 3-(6-(2-(2-chloro-6-fluorophenyl)prop-1-en-1-yl)-4-((2-methoxy-4,5,6,7-tetrahydropyrazolo[1,5-a]pyridin-3-yl)-sulfonyl)-3,4-dihydro-2H-benzo[b][1,4]oxazin-2-yl)-propanoate], the EC50 on Gal4-RORγ-LBD (with ursolic acid) and on RORγ-LBD (RORγ-LBD TR-FRET) was less than 500 nM in each case.
`COc1cc(S(=O)(=O)N2c3cc(/C=C(\C)c4c(F)cccc4Cl)ccc3C[C@H](O)[C@H]2C)ccc1F` (racemic) [Example 175, rac-(2R,3S)-7-((E)-2-(2-Chloro-6-fluorophenyl)prop-1-en-1-yl)-1-((4-fluoro-3-methoxyphenyl)sulfonyl)-2-methyl-1,2,3,4-tetrahydroquinolin-3-ol]: at Gal4-RORγ-LBD (in presence of ursolic acid), the EC50 – broadly, the concentration giving half of the maximal effect – was in the range of 500 to 5000 nM and the “Gal4-RORγ Assay Max Response” value is on record as “* (a value in the range of 30 to 90)”. For the same compound, at RORγ-LBD (RORγ-LBD TR-FRET assay), the EC50 is less than 500 nM and the “TR-FRET Assay Max Response” value was “** (a value in the range of greater than 90 to 150)”.
Consider `COC(=O)CCC1CC(S(=O)(=O)c2cccc(C(F)(F)F)c2)c2cc(OCc3c(F)cccc3Cl)ccc2O1` (stereo not shown) [Example 186B, methyl 3-(6-((2-chloro-6-fluorobenzyl)oxy)-4-((3-(trifluoromethyl)phenyl)sulfonyl)chroman-2-yl)propanoate], for which, on Gal4-RORγ-LBD (in presence of ursolic acid), the EC50 is less than 500 nM and the “Gal4-RORγ Assay Max Response” value is given as “** (a value in the range of greater than 90 to 150)”. For the same compound, at RORγ-LBD (RORγ-LBD TR-FRET assay), the EC50 is less than 500 nM and the “TR-FRET Assay Max Response” value is “** (a value in the range of greater than 90 to 150)”.
For the compound `C/C(=C\c1ccc2c(c1)N(S(=O)(=O)c1cn(CC(F)F)nc1OCCO)C[C@H](CCC(=O)O)O2)c1c(F)cccc1Cl` [Example 86AZ, (S)-3-(6-(2-(2-chloro-6-fluorophenyl)prop-1-en-1-yl)-4-((1-(2,2-difluoroethyl)-3-(2-hydroxyethoxy)-1H-pyrazol-4-yl)sulfonyl)-3,4-dihydro-2H-benzo[b][1,4]oxazin-2-yl)propanoic acid], the results for the EC50 on Gal4-RORγ-LBD (with ursolic acid) and at RORγ-LBD (RORγ-LBD TR-FRET) were 500 to 5000 nM and less than 500 nM, respectively.
In the case of `COc1cc(S(=O)(=O)N2C[C@H](CCNC(=O)C(=O)O)Oc3ccc(/C=C(\C)c4c(F)cccc4Cl)cc32)ccc1F` [Example 116K, (S,E)-2-((2-(6-(2-(2-chloro-6-fluorophenyl)prop-1-en-1-yl)-4-((4-fluoro-3-methoxyphenyl)sulfonyl)-3,4-dihydro-2H-benzo[b][1,4]-oxazin-2-yl)ethyl)amino)-2-oxoacetic acid], at Gal4-RORγ-LBD (in presence of ursolic acid), the EC50 was in the range of 500 to 5000 nM and the “Gal4-RORγ Assay Max Response” value was “** (a value in the range of greater than 90 to 150)”. Also, on RORγ-LBD (RORγ-LBD TR-FRET assay), the EC50 is less than 500 nM and the “TR-FRET Assay Max Response” value is “*** (a value in the range of greater than 150 to 200)”.
`COc1nn2c(c1S(=O)(=O)N1C[C@H](CCC(=O)O)Oc3ccc(/C=C(\C)c4c(F)cccc4Cl)cc31)CCCC2` [Example 86K, (S,E)-3-(6-(2-(2-chloro-6-fluorophenyl)prop-1-en-1-yl)-4-((2-methoxy-4,5,6,7-tetrahydropyrazolo[1,5-a]pyridin-3-yl)sulfonyl)-3,4-dihydro-2H-benzo[b][1,4]oxazin-2-yl)propanoic acid]: the EC50 on Gal4-RORγ-LBD (with ursolic acid) and at RORγ-LBD (RORγ-LBD TR-FRET) was less than 500 nM throughout.
With `CC(C)n1cc(S(=O)(=O)N2C[C@H](CCC(=O)O)Oc3ccc(/C=C/c4c(Cl)cccc4C(F)(F)F)cc32)c(OCCO)n1` [Example 89ED, (S,E)-3-(6-(2-chloro-6-(trifluoromethyl)styryl)-4-((3-(2-hydroxyethoxy)-1-isopropyl-1H-pyrazol-4-yl)sulfonyl)-3,4-dihydro-2H-benzo[b][1,4]oxazin-2-yl)propanoic acid], the EC50 at Gal4-RORγ-LBD (with ursolic acid) and on RORγ-LBD (RORγ-LBD TR-FRET) was less than 500 nM each time.
`O=C(O)C1CCN(C(=O)CC[C@H]2CN(S(=O)(=O)c3cccc(C(F)(F)F)c3)c3cc(/C=C/c4c(Cl)cccc4C(F)(F)F)ccc3O2)CC1` [Example 129A, (S,E)-1-(3-(6-(2-chloro-6-(trifluoromethyl)styryl)-4-((3-(trifluoromethyl)-phenyl)sulfonyl)-3,4-dihydro-2H-benzo[b]-[1,4]oxazin-2-yl)propanoyl)piperidine-4-carboxylic acid]: at Gal4-RORγ-LBD (in presence of ursolic acid), the EC50 was less than 500 nM and the “Gal4-RORγ Assay Max Response” value is given as “** (a value in the range of greater than 90 to 150)”. In addition, at RORγ-LBD (RORγ-LBD TR-FRET assay), the EC50 is less than 500 nM and the “TR-FRET Assay Max Response” value is listed as “**** (a value greater than 200)”.
For the compound `CC/C(C)=C\c1ccc2c(c1)N(S(=O)(=O)c1cccc(C(F)(F)F)c1)C[C@H](CCC(=O)OC)O2` [Example 191C, methyl (S,Z)-3-(6-(2-methylbut-1-en-1-yl)-4-((3-(trifluoromethyl)phenyl)-sulfonyl)-3,4-dihydro-2H-benzo[b][1,4]oxazin-2-yl)propanoate], on Gal4-RORγ-LBD (in presence of ursolic acid), the EC50 was 500 to 5000 nM and the “Gal4-RORγ Assay Max Response” value is given as “** (a value in the range of greater than 90 to 150)”. For the same compound, at RORγ-LBD (RORγ-LBD TR-FRET assay), the EC50 was less than 500 nM and the “TR-FRET Assay Max Response” value is given as “**** (a value greater than 200)”.
`C/C(=C\c1ccc2c(c1)N(S(=O)(=O)c1cccc(C(F)(F)F)c1)C[C@H](CCC(=O)N1CC[C@@H](C(=O)O)C1)O2)c1c(F)cccc1Cl` [Example 129B, (R)-1-(3-((S)-6-((E)-2-(2-chloro-6-fluorophenyl)-prop-1-en-1-yl)-4-((3-(trifluoromethyl)phenyl)sulfonyl)-3,4-dihydro-2H-benzo[b][1,4]oxazin-2-yl)propanoyl)pyrrolidine-3-carboxylic acid]: at Gal4-RORγ-LBD (in presence of ursolic acid), the concentration giving a half-maximal response (EC50) was less than 500 nM and the “Gal4-RORγ Assay Max Response” value was “** (a value in the range of greater than 90 to 150)”. On RORγ-LBD (RORγ-LBD TR-FRET assay), the EC50 is less than 500 nM and the “TR-FRET Assay Max Response” value is reported as “**** (a value greater than 200)”.
`CCOc1sc(CC)nc1S(=O)(=O)N1C[C@H](CCC(=O)O)Oc2ccc(/C=C(\C)c3c(F)cccc3Cl)cc21` [Example 73, (S,E)-3-(6-(2-(2-Chloro-6-fluorophenyl)prop-1-en-1-yl)-4-((5-ethoxy-2-ethylthiazol-4-yl)sulfonyl)-3,4-dihydro-2H-benzo[b][1,4]oxazin-2-yl)propanoic acid]: the EC50 on Gal4-RORγ-LBD (with ursolic acid) and on RORγ-LBD (RORγ-LBD TR-FRET) was less than 500 nM each time.
As for `CC1(C)CCC(=Cc2ccc3c(c2)N(S(=O)(=O)c2cc(C(F)(F)F)cnc2OCCO)C[C@H](CCC(=O)O)O3)CC1` [Example 95W, (S)-3-(6-((4,4-dimethyl-cyclohexylidene)methyl)-4-((2-(2-hydroxyethoxy)-5-(trifluoromethyl)pyridin-3-yl)sulfonyl)-3,4-dihydro-2H-benzo[b][1,4]oxazin-2-yl)propanoic acid], the EC50 on Gal4-RORγ-LBD (with ursolic acid) is 500 to 5000 nM; on RORγ-LBD (RORγ-LBD TR-FRET), less than 500 nM.
As for `C/C(=C\c1ccc2c(c1)N(S(=O)(=O)c1cccc(C(F)(F)F)c1)C[C@@H](NS(C)(=O)=O)C2)c1c(F)cccc1Cl` [Example 116I, (S,E)-N-(7-(2-(2-chloro-6-fluorophenyl)prop-1-en-1-yl)-1-((3-(trifluoromethyl)phenyl)-sulfonyl)-1,2,3,4-tetrahydroquinolin-3-yl)methanesulfonamide], on Gal4-RORγ-LBD (in presence of ursolic acid), the EC50 was 500 to 5000 nM and the “Gal4-RORγ Assay Max Response” value was “** (a value in the range of greater than 90 to 150)”. For the same compound, on RORγ-LBD (RORγ-LBD TR-FRET assay), the EC50 is less than 500 nM and the “TR-FRET Assay Max Response” value was “*** (a value in the range of greater than 150 to 200)”.
Regarding `COC(=O)CC[C@H]1CN(S(=O)(=O)c2cc(C(F)(F)F)cnc2OC[C@@H](C)O)c2cc(/C=C/c3c(F)cccc3Cl)ccc2O1` [Example 78, Methyl 3-((S)-6-((E)-2-chloro-6-fluorostyryl)-4-((2-((R)-2-hydroxypropoxy)-5-(trifluoromethyl)pyridin-3-yl)sulfonyl)-3,4-dihydro-2H-benzo[b][1,4]oxazin-2-yl)propanoate], the EC50 at Gal4-RORγ-LBD (with ursolic acid) and on RORγ-LBD (RORγ-LBD TR-FRET) was 500 to 5000 nM throughout.
Turning to `CCn1cc(S(=O)(=O)N2C[C@H](CCC(=O)O)Oc3ccc(/C=C/c4ncccc4Cl)cc32)c(Cl)n1` [Example 89CQ, (S,E)-3-(4-((3-chloro-1-ethyl-1H-pyrazol-4-yl)sulfonyl)-6-(2-(3-chloropyridin-2-yl)vinyl)-3,4-dihydro-2H-benzo[b][1,4]oxazin-2-yl)propanoic acid], the EC50 on Gal4-RORγ-LBD (with ursolic acid) is 500 to 5000 nM; at RORγ-LBD (RORγ-LBD TR-FRET), less than 500 nM.
The corresponding values for `CC(F)(F)c1cccc(Cl)c1/C=C/c1ccc2c(c1)N(S(=O)(=O)c1cccc(C(F)(F)F)c1)C[C@H](CCC(=O)O)O2` [Example 89EV, (S,E)-3-(6-(2-chloro-6-(1,1-difluoroethyl)styryl)-4-((3-(trifluoromethyl)phenyl)-sulfonyl)-3,4-dihydro-2H-benzo[b][1,4]oxazin-2-yl)propanoic acid] are 5000 to 10000 nM and less than 500 nM.

These data come from US9896441B2 (Lycera Corporation, priority 2014, dated 2018).
